In brackets after ≈: the same amount, converted by molar mass. Where a SMILES comes first, the peptide text is derived from it. The star is where a group is joined. βGlcNAc = CC(=O)N[C@@H]1[C@@H](O)[C@H](O)[C@@H](CO)O[C@H]1*; Stearoyl = CCCCCCCCCCCCCCCCCC(=O)*; Palmitoyl = CCCCCCCCCCCCCCCC(=O)*

Series [1] in a line: Determination of peptide hydrophobicity with RP-HPLC (adjusted retention time). Type of series: physicochemical. Particulars: RP-HPLC as measure of hydrophobicity; Waters X-Bridge Shield RP-18 3.0 × 100 mm, 3.5 μm; linear 20–80% acetonitrile in water over 30 min, 0.1% TFA; 0.5 mL/min; 25.0 °C; peptide 1 g/L in water (0.1% TFA); UV 214 nm; triplicate. Here is the method: To determine peptide hydrophobicity, a Waters Alliance e2695 system with a Waters 2998 PDA Detector was used. All analyses were carried out on a Waters X-Bridge Shield RP-18 column (3.0 × 100 mm, 3.5 μm particle size, 130 Å pore size). The peptides were dissolved in water (0.1% TFA, v/v) up to a concentration of 1 g/L. UV detection at 214 nm was used, and samples (10 μL) were eluted with a linear 20–80% acetonitrile gradient in deionized water over 30 min at 25.0 ± 0.1 °C. The mobile phase flow rate was 0.5 mL/min. Both eluents contained 0.1% (v/v) of TFA. Each peptide sample was analyzed in triplicate. Maximum standard deviation and coefficient of variation were 0.046 and 0.23%, respectively.
After synthesis and purification, all the products were analyzed with MS and HPLC to confirm purity and identity of the compounds. […] The chromatographic analyses were performed with RP-HPLC; retention time refers to hydrophobicity of the lipopeptide.

Series [2] has as its system P. aeruginosa ATCC 9027. The series is classed as cell-based, Pseudomonas aeruginosa. Particulars: ATCC 9027, 18 h. The method, then:
(§1) The Acinetobacter baumannii ATCC BAA-1605, Enterococcus faecium ATCC 700221, Klebsiella aerogenes ATCC 13048, Klebsiella pneumoniae ATCC 700603, Pseudomonas aeruginosa ATCC 9027, Staphylococcus aureus ATCC 33591, Candida glabrata ATCC 15126, strains were acquired from the American Type Culture Collection (ATCC). All the strains were stored at −80 °C in Roti-Store cryo vials and were transferred into fresh Mueller–Hinton broth (MHB, Becton Dickinson, Warsaw, Poland) for bacteria or RPMI-1640 (Sigma-Aldrich, Steinheim, Germany) for fungi before the tests and incubated for 24 h at 37 °C. Then, the cultures were seeded on the Mueller–Hinton agar (BioMaxima, Lublin, Poland) or Sabouraud dextrose agar (SDA, BioMaxima, Lublin, Poland) plates, respectively, and incubated as just mentioned. These agar cultures were used for further microbiological assays. Cell densities for all assays were adjusted spectrophotometrically (Multiskan GO Microplate Spectrophotometer, Thermo Fisher Scientific, Vantaa, Finland) at 600 and 530 nm for bacteria and fungi, respectively.
(§2) The MICs were determined using a broth microdilution method according to the Clinical and Laboratory Standard Institute guidelines. For this purpose, initial inoculums of bacteria (5 × 10^5 CFU/mL) in MHB and yeasts (2 × 10^3 CFU/mL) in RPMI-1640 with 2% D-glucose were exposed to the ranging concentration of lipopeptides (1–512 μg/mL) and incubated at 37 °C for 18 h and 24 h, respectively. The experiments were conducted on 96-well microtiter polystyrene plates (Kartell, Italy). The growth was assessed visually after incubation and the MIC was assumed as the lowest peptide concentration at which a noticeable growth of microorganisms was inhibited. All experiments were conducted in triplicate.

For series [3], the system named is K. aerogenes ATCC 13048. The series is classed as cell-based, Klebsiella aerogenes. Particulars: ATCC 13048, 18 h. Here is the method: as §1, §2
Series [4] deals with S. aureus biofilm. The series is classed as cell-based, Staphylococcus aureus. Particulars: 24 h. The method, then:
as §1
(§3) The MBECs were determined as previously described, using 96-well polystyrene flat-bottom plates. For this purpose, 24 h cultures of microorganisms were diluted to obtain a final density of 5.0 × 10^5 CFU/mL and 2.0 × 10^5 CFU/mL of bacteria and fungi, respectively. Microorganisms were diluted in MHB or RPMI-1640 with 2% D-glucose (bacteria and fungi, respectively). Briefly, 100 µL of cell suspension was added into the test plates. After 24 h of incubation at 37 °C, the wells were rinsed three times with a phosphate buffer saline (PBS, pH 7.4) to remove non-adherent cells. Subsequently, 100 μL of the test compounds over the concentration range (1–512 μg/mL) were added to each well. After 24 h of incubation at 37 °C, 20 μL of a cell viability reagent was added (resazurin, 4 g/L; Sigma Aldrich, St. Louis, MO, USA). The MBEC was read after 1 h. The determined values were recorded as the lowest concentration at which the reduction of resazurin (from blue to pink) […]. All experiments were conducted in triplicate.

The subject of series [5] is K. pneumoniae biofilm. Type of series: cell-based, Klebsiella pneumoniae. Particulars: 24 h. Here is the method:
as §1, §3

For series [6], the system named is A. baumannii biofilm. Type of series: cell-based, Acinetobacter baumannii. Particulars: 24 h. The method, then:
as §1, §3

Series [7] concerns P. aeruginosa biofilm. Type of series: cell-based, Pseudomonas aeruginosa. Particulars: 24 h. Here is the method:
as §1, §3

Series [8] deals with C. glabrata biofilm. The series is classed as cell-based, Candida glabrata. Particulars: 24 h. Here is the method: as §1, §3
Series [9] has as its system human red blood cells (RBCs). The series is described as follows: Hemolysis assay. Particulars: human RBCs 4% (v/v) in PBS, 60 min, 37 °C, absorbance 540 nm, 1–512 µg/mL; triplicate. Type of series: cell-based. Here is the method: The hemolysis assay was conducted using a procedure described previously. For this purpose, fresh human red blood cells (RBCs) with EDTA anticoagulant were washed three times with phosphate-buffer saline (PBS) using centrifugation at 800× g for 10 min and resuspended in PBS. Then, the stock solution of RBCs was added to serial dilution of peptides on 96-well polystyrene plates to reach a final volume of 100 µL with 4% concentration of erythrocytes (v/v) over the concentration range of 1–512 µg/mL of the tested compounds. The control wells for the 0% and 100% hemolysis consisted of RBCs suspended in PBS and 1% of Triton X–100, respectively. Subsequently, the plates were incubated for 60 min at 37 °C and then centrifuged at 800× g for 10 min at 4 °C (Sorvall ST 16R Centrifuge, Thermo Scientific, Osterode am Harz, Germany). After centrifugation, the supernatant was carefully […] to new microtiter plates and the release of hemoglobin was monitored through absorbance measurements at 540 nm (Multiskan™ GO Microplate Spectrophotometer, Thermo Scientific). All experiments were conducted in triplicate.
The lipopeptides were tested against human erythrocytes in order to evaluate their hemolytic activity. Moreover, selectivity indexes (SI) were calculated by dividing the HC50 by MIC. […] In some cases, glycosylation led to suppressed toxicity, e.g., a comparison of C14 peptides analogs: 1–3 and 10–12. On the other hand, an increase in toxicity of C18 analogs (7–9 vs. 16–18) was found for glycosylated USCLs. For this reason, SI was calculated to provide a correlation between antimicrobial activity and toxicity. […] Among gUSCLs: 10 and 11 with C14 fatty acid and 16–18 should be highlighted owing to their high selectivity against E. fecium and C. glabrata.

For the compound `CCCCCCCCCCCCCCCCCC(=O)N[C@@H](CO)C(=O)N[C@@H](CCCNC(=N)N)C(=O)N[C@@H](CCCNC(=N)N)C(N)=O` [Peptide 7, C18-SRR-NH2] (Stearoyl-Ser-Arg-Arg-NH2), in series [1], the “Adjusted Retention Time” value was found to be 24.78 min. Also, the MIC was 64 µg/mL (≈ 93.7 µM) in [2] and 16 µg/mL (≈ 23.4 µM) in series [3]. Further, the MBEC in series [4] is on record as 512 µg/mL; in series [5], 512 µg/mL; in series [6], 512 µg/mL; in series [7], 512 µg/mL; in series [8], 128 µg/mL. Moreover, in series [9], the “HC50 (hemolytic activity)” value amounted to 82.31 ± 1.36 µg/mL.

For `CCCCCCCCCCCCCCCCCC(=O)N[C@@H](CCCNC(=N)N)C(=O)N[C@@H](CO)C(=O)N[C@@H](CCCNC(=N)N)C(N)=O` [Peptide 8, C18-RSR-NH2] (Stearoyl-Arg-Ser-Arg-NH2), in series [1], the “Adjusted Retention Time” value stood at 24.13 min. In addition, the results for the MIC in series [2] and in series [3] were 64 µg/mL (≈ 93.7 µM) and 32 µg/mL (≈ 46.9 µM), respectively. Moreover, the MBEC is recorded as 256 µg/mL in series [4]; 512 µg/mL in series [5]; 512 µg/mL in series [6]; more than 512 µg/mL in series [7]; 128 µg/mL in [8]. Moreover, the “HC50 (hemolytic activity)” value in series [9] was 335.12 ± 73.39 µg/mL.

For the compound `CCCCCCCCCCCCCCCCCC(=O)N[C@@H](CCCNC(=N)N)C(=O)N[C@@H](CCCNC(=N)N)C(=O)N[C@@H](CO)C(N)=O` [Peptide 9, C18-RRS-NH2] (Stearoyl-Arg-Arg-Ser-NH2), in series [1], the “Adjusted Retention Time” value was determined as 24.04 min. The MIC came to 64 µg/mL (≈ 93.7 µM) in [2] and 32 µg/mL (≈ 46.9 µM) in [3]. Further, the MBEC is reported as 256 µg/mL in series [4]; 512 µg/mL in [5]; 512 µg/mL in series [6]; more than 512 µg/mL in series [7]; 128 µg/mL in [8]. The “HC50 (hemolytic activity)” value in series [9] was 94.31 ± 2.64 µg/mL.

`CCCCCCCCCCCCCCCC(=O)N[C@@H](CCCNC(=N)N)C(=O)N[C@@H](CO[C@@H]1O[C@H](CO)[C@@H](O)[C@H](O)[C@H]1NC(C)=O)C(=O)N[C@@H](CCCNC(=N)N)C(N)=O` [Peptide 14, C16-RS(GlcNAc)R-NH2] (Palmitoyl-Arg-Ser(βGlcNAc)-Arg-NH2): in [1], the “Adjusted Retention Time” value is reported as 18.63 min. For the same compound, the values for the minimum inhibitory concentration (MIC) in series [2] and in series [3] were 32 µg/mL (≈ 37.3 µM) and 64 µg/mL (≈ 74.6 µM), respectively. Moreover, the “HC50 (hemolytic activity)” value in series [9] was 73.34 ± 1.63 µg/mL.

As to `CCCCCCCCCCCCCCCC(=O)N[C@@H](CCCNC(=N)N)C(=O)N[C@@H](CCCNC(=N)N)C(=O)N[C@@H](CO[C@@H]1O[C@H](CO)[C@@H](O)[C@H](O)[C@H]1NC(C)=O)C(N)=O` [Peptide 15, C16-RRS(GlcNAc)-NH2] (Palmitoyl-Arg-Arg-Ser(βGlcNAc)-NH2), the “Adjusted Retention Time” value in [1] is 18.80 min. The figures for the minimal inhibitory concentration (MIC) in [2] and in [3] were 64 µg/mL (≈ 74.6 µM) and 256 µg/mL (≈ 298 µM), respectively. For the same compound, the “HC50 (hemolytic activity)” value in series [9] is reported as 111.45 ± 11.65 µg/mL.

On to `CCCCCCCCCCCCCCCCCC(=O)N[C@@H](CO[C@@H]1O[C@H](CO)[C@@H](O)[C@H](O)[C@H]1NC(C)=O)C(=O)N[C@@H](CCCNC(=N)N)C(=O)N[C@@H](CCCNC(=N)N)C(N)=O` [Peptide 16, C18-S(GlcNAc)RR-NH2] (Stearoyl-Ser(βGlcNAc)-Arg-Arg-NH2), for which the “Adjusted Retention Time” value in series [1] is 22.12 min. The minimum inhibitory concentration (MIC) in series [2] and in series [3] was 32 µg/mL (≈ 36.1 µM) throughout. Further, the MBEC was 256 µg/mL in [4]; 256 µg/mL in series [5]; 512 µg/mL in series [6]; 512 µg/mL in [7]; 64 µg/mL in [8]. Besides, the “HC50 (hemolytic activity)” value in series [9] is 77.45 ± 1.13 µg/mL.

`CCCCCCCCCCCCCCCCCC(=O)N[C@@H](CCCNC(=N)N)C(=O)N[C@@H](CO[C@@H]1O[C@H](CO)[C@@H](O)[C@H](O)[C@H]1NC(C)=O)C(=O)N[C@@H](CCCNC(=N)N)C(N)=O` [Peptide 17, C18-RS(GlcNAc)R-NH2] (Stearoyl-Arg-Ser(βGlcNAc)-Arg-NH2): the “Adjusted Retention Time” value in series [1] came out at 22.50 min. Also, the MIC in [2] and in series [3] was 32 µg/mL (≈ 36.1 µM) in each case. Further, the MBEC is 128 µg/mL in series [4]; 256 µg/mL in series [5]; 512 µg/mL in series [6]; more than 512 µg/mL in series [7]; 64 µg/mL in [8]. Besides, the “HC50 (hemolytic activity)” value in [9] came to 45.25 ± 0.59 µg/mL.

For `CCCCCCCCCCCCCCCCCC(=O)N[C@@H](CCCNC(=N)N)C(=O)N[C@@H](CCCNC(=N)N)C(=O)N[C@@H](CO[C@@H]1O[C@H](CO)[C@@H](O)[C@H](O)[C@H]1NC(C)=O)C(N)=O` [Peptide 18, C18-RRS(GlcNAc)-NH2] (Stearoyl-Arg-Arg-Ser(βGlcNAc)-NH2), in series [1], the “Adjusted Retention Time” value was 22.67 min. Further, the MIC in series [2] and in series [3] was 32 µg/mL (≈ 36.1 µM) throughout. The MBEC in [4] amounted to 128 µg/mL; in series [5], 128 µg/mL; in series [6], 256 µg/mL; in series [7], 512 µg/mL; in series [8] it was 128 µg/mL. Moreover, the “HC50 (hemolytic activity)” value in [9] is given as 48.04 ± 2.45 µg/mL.

The MIC is the least concentration at which growth counts as inhibited. Higher therefore signals a need for much substance.

Values taken from publication PMC9855884, “Glycosylated Lipopeptides—Synthesis and Evaluation of Antimicrobial Activity and Cytotoxicity” (Biomolecules, 2023).
